{"source": "patent US20090176850A1", "about": "“Novel 2-Amino-Imidazole-4-One Compounds And Their Use In The Manufacture Of A Medicament To Be Used In The Treatment Of Cognitive Impairment, Alzheimer's Disease, Neurodegeneration And Dementia” (ASTRAZENECA AB, priority 2005, published 2009)", "origin": "cited, not measured here", "target": "BACE (Homo sapiens, UniProt P56817)", "sequence (P56817 46-501)": "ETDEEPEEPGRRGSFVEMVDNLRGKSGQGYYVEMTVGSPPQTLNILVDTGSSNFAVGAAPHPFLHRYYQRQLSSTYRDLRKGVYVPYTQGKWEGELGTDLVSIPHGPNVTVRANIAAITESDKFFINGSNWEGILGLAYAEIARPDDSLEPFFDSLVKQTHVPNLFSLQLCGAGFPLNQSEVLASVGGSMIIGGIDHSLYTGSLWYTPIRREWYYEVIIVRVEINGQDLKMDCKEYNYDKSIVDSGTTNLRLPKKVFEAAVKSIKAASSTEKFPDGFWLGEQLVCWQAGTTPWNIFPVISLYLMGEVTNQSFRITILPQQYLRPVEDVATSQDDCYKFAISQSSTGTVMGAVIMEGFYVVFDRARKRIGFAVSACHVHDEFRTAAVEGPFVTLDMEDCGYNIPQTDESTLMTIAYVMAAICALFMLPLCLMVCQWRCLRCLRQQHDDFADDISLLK", "settings": "Vassar et al, 1999", "note": "Non-standard residues stand in square brackets, D forms with d. Residues, ends and D or L forms follow the SMILES beside them. *: point of attachment. Sta = CC(C)C[C@H](N)[C@@H](O)CC(=O)O; Isovaleryl = CC(C)CC(=O)*", "data": [{"smiles": "CC(C)CC(=O)N[C@H](C(=O)N[C@H](C(=O)N[C@@H](CC(C)C)[C@@H](O)CC(=O)N[C@@H](C)C(=O)N[C@@H](CC(C)C)[C@@H](O)CC(=O)O)C(C)C)C(C)C", "note": "[pepstatin] (Isovaleryl-VV[Sta]A[Sta]-OH)", "values": [{"measurement": "inhibition of BACE", "value": "inhibited weakly"}]}]}
